In article PMC4741576 (Oncotarget, 2015):

Assays:
[1] = overall health of xenografted mice; conditions: 3 consecutive days for 2 weeks; POL5551 5 mg/kg s.c., cytarabine 200 mg/kg i.p.
From the text: (§1) CXCR4 antagonism has been advanced clinically in acute leukemia. Trials of plerixafor as a chemosensitizing agent have been completed in adults with relapsed/refractory and newly-diagnosed AML, [33] and children with relapsed/refractory acute leukemias. One concern about CXCR4 antagonism is that mobilized hematopoietic stem cells will become more susceptible to chemotherapy and lead to delayed blood count recovery.
(§2) Leukemic blasts (1 × 10^6 per mouse) were then secondarily transplanted into sublethally irradiated NSG mice for treatment experiments. […] After sacrifice, cells were isolated from bone marrow, spleen, and peripheral blood; counted; and stained with anti-human FACS antibodies (CD19- FITC, CD45-PE/APC, 12G5 CXCR4-APC, 1D9 CXCR4-PE, CXCR7-PerCP, and/or CD49d-PE-Cy5).

CXCR4 = conditions: vs. control
From the text: as §2

CD49d = CD49d surface expression in leukemic blasts from xenografted mice; format: in vivo, human; conditions: bone marrow, spleen and peripheral blood blasts, compared to control; differences not statistically significant
From the text: as §2

[2] = tested on: infant MLL-R ALL primary samples; experiment: xenograft of infant MLL-R ALL, leukemic burden; format: in vivo, human blasts in NSG mice
From the text: Therefore, we transplanted primary samples from infants with MLL-R ALL. […] To make our xenograft model even more aggressive, we transplanted cells that had already been passaged once through NOD/SCID/γc^null (NSG) mice in order to select for leukemia-initiating cells from the cryopreserved primary samples. We performed this experiment using 4 different infant MLL-R ALL primary samples (Figure 6A).
Mice were sacrificed at the start of week 4, or 4 days after the last treatment. […] Overall leukemic burden was quantified by averaging the percentage of blasts (human CD45+ and CD19+) detected in the bone marrow, spleen, and peripheral blood. Quantification of leukemic blasts was performed in duplicate.
Cryopreserved primary ALL cells were thawed, counted (TC10 Automated Cell Counter, BioRad, Hercules, CA), and resuspended in cold PBS. Adult NSG mice (Jackson Laboratories, Bar Harbor, ME) were sublethally irradiated (200 centiGray) 4 hours prior to the transplantation of 1 × 10^6 viable cells via tail vein injection. Mice were started on Uniprim medicated feed (Harlan Laboratories, Frederick, MD) ≥ 24 hours prior to transplantation in order to decrease opportunistic infections. Peripheral blood was collected via cheek venipuncture 4 to 6 weeks post-transplant and analyzed by FACS after staining with anti-human CD19-FITC and anti-human CD45-PE (BD Pharmingen). Leukemic blasts were defined as cells that co-expressed human CD45 and human CD19. Mice were sacrificed 2 to 4 weeks post-engraftment and leukemic cells were harvested from the spleen and bone marrow.
as §2

surface CXCR4 [3] = conditions: leukemic blasts; cited from earlier work
CXCR7 = conditions: ALL; cited from earlier work
From the text: (§3) CXCR7 is a second receptor for SDF-1α, [24, 25] while VLA-4 is an integrin, [26] and both are important in the interaction of leukemia cells with the bone marrow stromal microenvironment.

acute leukemias [4] = conditions: several preclinical studies; cited from earlier work
From the text: Efforts to improve outcomes in pediatric ALL have largely been focused on factors intrinsic to the leukemic blast, such as genetic mutations or alterations in gene expression. However, it is likely that survival signals from the bone marrow microenvironment also contribute to treatment failure and relapse. As such, many groups have studied CXCR4 antagonism as a means to improve outcomes in acute leukemias. […] Our paper is ...

surface CXCR4 [5] = conditions: leukemic blasts; cited from earlier work; remark: listed apart in the source
surface CXCR4 [6] = molecular target: T1, surface CXCR4 (Homo sapiens, UniProt P61073); experiment: 12G5 anti-CXCR4 antibody binding (FACS), ALL cell lines
T1 construct: endogenous in cells; host or cells: pediatric ALL cell lines (pre-B: Nalm-6, HB-1119 and others; T cell: Jurkat, CCRF-CEM-1301 and others)
T1 sequence (P61073 whole entry): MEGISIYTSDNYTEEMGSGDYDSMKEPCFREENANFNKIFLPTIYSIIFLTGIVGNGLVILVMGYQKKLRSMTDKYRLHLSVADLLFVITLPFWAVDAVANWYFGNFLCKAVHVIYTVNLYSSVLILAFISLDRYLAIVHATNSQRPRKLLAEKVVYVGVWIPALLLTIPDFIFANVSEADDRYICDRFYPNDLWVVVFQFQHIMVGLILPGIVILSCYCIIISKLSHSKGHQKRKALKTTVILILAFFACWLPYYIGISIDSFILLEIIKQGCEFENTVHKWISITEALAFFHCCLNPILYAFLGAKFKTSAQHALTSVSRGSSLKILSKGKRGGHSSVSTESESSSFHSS
Method: We then harvested cells and measured binding of the 12G5 anti-CXCR4 antibody, which attaches to the SDF-1α binding site of CXCR4, by FACS as a marker for surface CXCR4 expression.
12G5 anti-CXCR4 antibody binding was measured by FACS and MFI were normalized to control at each time point.
Conversely, 1D9 antibody binding is a measure of total surface CXCR4. […] At multiple time points, we measured binding to surface CXCR4 by flow cytometry using 3 anti-CXCR4 antibodies: 12G5, 1D9, and 2B11.
Cells were harvested at multiple time points, washed with ice-cold wash buffer (PBS with 0.5% bovine serum albumin, Sigma-Aldrich), stained with antibodies at manufacturer-recommended concentrations (12G5 anti-human CD184 [CXCR4]-APC, eBioscience, San Diego, CA; 12G5 anti-human CD184-PE-Cy5, BD Pharmingen, San Diego, CA; 1D9 anti-human CD184-PE, BD Pharmingen; 2B11 anti-mouse CD184-APC, eBioscience; anti-human CXCR7- PerCP, R&D Systems, Minneapolis, MN), washed, fixed with 1% paraformaldehyde (VWR, Radnor, PA), and stored at 4°C in the dark until analysis on a FACSCalibur (BD Biosciences, San Jose, CA). A live gate was drawn using FlowJo (TreeStar, Ashland, OR) according to forward/side scatter properties and used to calculate the MFI. MFI were normalized to the isotype control (IC) MFI at each time point and then normalized to the MFI:IC ratio of control-treated (0 nM) samples.

acute leukemias [7] = conditions: cited from earlier work
From the text: as §1, with “recovery. […] With regards to ...” for “recovery.”

[8] = tested on: pediatric ALL and acute myeloid leukemia (AML); conditions: cited from earlier work
From the text: ALL is the most common pediatric malignancy. […] However, children and young adults with high-risk and relapsed/refractory ALL continue to have suboptimal outcomes. […] Specifically, interaction between the cell surface receptor CXCR4 ...

ERK1/2 = experiment: SDF-1α-induced phosphorylation of ERK1/2 (PhosphoFACS); format: cell-based, human; conditions: control-treated cells, SDF-1α 75 ng/mL for 15 minutes
From the text: as §3

Compound: Nc1ccn([C@@H]2O[C@H](CO)[C@@H](O)[C@@H]2O)c(=O)n1 [cytarabine]
- appearance of mice at sacrifice [1]: thin and hunched at sacrifice
- 12G5 antibody binding in blasts from bone marrow and peripheral blood (CXCR4): moderate but non-significant decrease in 12G5 antibody binding
- CD49d mean fluorescence index (MFI) (CD49d): increased
- overall leukemic burden compared to vehicle control ([2]; 3 consecutive days for 2 weeks, vs. vehicle control): significantly decreased total leukemic burden compared to vehicle control
- overall leukemic burden ([2]; average of bone marrow, spleen, peripheral blood, 4 primary samples pooled, n = 5 mice/cohort, POL5551 5 mg/kg s.c., cytarabine 200 mg/kg i.p., 3 consecutive days for 2 weeks, vehicle control 56.2%): 36.7%
- leukemic burden in bone marrow compared to vehicle control ([2]; bone marrow, cytarabine 200 mg/kg i.p., vs. vehicle control): did not lead to a significant decrease in leukemic burden compared to vehicle control
- leukemic burden, bone marrow ([2]; bone marrow, POL5551 5 mg/kg s.c., cytarabine 200 mg/kg i.p., 3 consecutive days for 2 weeks): 49.5%
- leukemic burden, blood ([2]; peripheral blood, POL5551 5 mg/kg s.c., cytarabine 200 mg/kg i.p., 3 consecutive days for 2 weeks): 29.6%
- leukemic burden, spleen ([2]; spleen, POL5551 5 mg/kg s.c., cytarabine 200 mg/kg i.p., 3 consecutive days for 2 weeks): 30.8%

Compound: c1cc(CN2CCCNCCNCCCNCC2)ccc1CN1CCCNCCNCCCNCC1 [plerixafor]
- 1D9 antibody binding to surface CXCR4 (surface CXCR4 [3]): increase in 1D9 antibody binding
- surface expression of CXCR7 (CXCR7): increase in surface expression of CXCR7
- in vivo sensitivity to anti-leukemic therapies (acute leukemias [4]): enhances in vivo sensitivity to anti-leukemic therapies
- 12G5 antibody binding to surface CXCR4 (surface CXCR4 [5]): decrease in 12G5 antibody binding
- 12G5 antibody binding, potency relative to POL5551 / plerixafor (surface CXCR4 [6]; ALL cell lines, 48-hour time course): several-fold higher concentrations of plerixafor were needed to achieve similar levels of reduction of 12G5 antibody binding
- inhibition at 0.04 µM (surface CXCR4 [6]; NALM-6, read-out: maximum inhibition of 12G5 antibody binding): ~20%
- prolonged count recovery (acute leukemias [7]; phase 1/2 trials of plerixafor): none of them reported prolonged count recovery
- tolerability and efficacy as a chemosensitizing agent (acute leukemias [7]; phase 1/2 trials, adults with AML, children with relapsed/refractory acute leukemias): showed tolerability and efficacy of plerixafor as a chemosensitizing agent
- development of extramedullary disease after treatment (acute leukemias [7]; plerixafor trials): none of the aforementioned trials reported the development of extramedullary disease after treatment
- stromal protection and chemotherapy resistance [8]: could reverse stromal protection and chemotherapy resistance

Compound: SDF-1α
- ERK1/2 phosphorylation, effect of SDF-1α (ERK1/2): increase in phosphorylation of ERK1/2
